Blank lines part the entries; values can stand above or below the molecule they belong to.
Experiments:
Type in all cases: cell-based
[1] = tested on: Pseudomonas aeruginosa (PA-14, PA-1); experiment: MIC assay, Pseudomonas aeruginosa strains; settings: Pseudomonas aeruginosa PA-14 and PA-1
Description: PA-14 is a highly virulent Pseudomonas aeruginosa strain (Gram-negative) that is difficult to treat. PA-1 is a meropenem resistant clinical isolate of Pseudomonas aeruginosa that was obtained from a patient. Meropenem, vancomycin and polymyxin B are commercial antibiotics that are used as controls.

Bacillus subtilis = experiment: Minimum inhibitory concentration (MIC) assay, B. subtilis
Method: (§1) Biological Assays: Minimum inhibitory concentration (MIC) assay: A single bacterial colony (Bacillus subtilis (B. subtilis) or methicillin-resistant Staphylococcus aureus (MRSA)) was selected and incubated in media (Luria Broth (LB) for B. subtilis or Tryptic Soy Broth (TSB) for MRSA) at 37° C. overnight. This was sub-cultured in media and incubated at 37° C. until the OD600 was approximately 0.5 (2.5-3.5-hour incubation). The subculture was diluted with media to an OD600 of 0.001. Diluted subculture and 1 mM stocks of compounds to be tested were added to a clear 96-well plate, and serially diluted by a factor of 0.5. The well plate was incubated overnight and the absorbance was measured at 600 nm using the TECAN. To determine the MIC in presence of serum, assays were repeated using media with 20% heat-inactivated mouse serum or 20% fetal bovine serum. […] The MIC50 was calculated using a 4PL sigmoidal nonlinear regression on Prism. The MIC100 was calculated as the first point below 10% of the maximum.
The MIC of PEG24-LL-PDT4G against B. subtilis was compared with the MIC of unmodified PDT-4G. Both compounds were pre-incubated with B. subtilis supernatant for 0, 4, or 24 hours before the MIC assay to test cleavage kinetics (FIG. 53).

E. coli = experiment: Minimum inhibitory concentration (MIC) assay, E. coli
[2] = tested on: methicillin resistant Staphylococcus aureus (MRSA) (ATCC 33591); experiment: Minimum inhibitory concentration (MIC) assay, MRSA
Method: as §1

[3] = tested on: community associated Staphylococcus aureus (strain USA300); experiment: Minimum inhibitory concentration (MIC) assay, S. aureus USA300
Method: as §1

[4] = tested on: cell membrane of methicillin resistant Staphylococcus aureus (MRSA); experiment: Membrane permeabilization propidium iodide (PI) assay, MRSA
bacterial membrane = experiment: Cytoplasmic permeability assay with propidium iodide, fluorescence microscopy; settings: incubated with PI
Method: Membrane permeabilization propidium iodide (PI) assay: 1 mM BDT-4G stock solutions were prepared in DMSO. B. subtilis strains were streaked onto a Luria Broth (LB) agar plate and incubated overnight. One colony was selected and incubated in LB overnight, then subcultured and incubated until the OD600 measured between 0.5 and 0.6. Bacteria were harvested, washed, and resuspended in a solution of 5 mM HEPES, 5 mM glucose, and 10 μM propidium iodide. 150 μL bacteria solution was added to each well of a black 96 well plate. Fluorescence measurements were taken at 535 nm excitation, 617 nm emission on a TECAN Infinite M1000 PRO Microplate reader (Männdorf) (TECAN) for 2 minutes. BDT-4G stock solution was added for a concentration of 15 μg/mL, and fluorescence measurements were taken for an additional 20 minutes.
Membrane permeabilization dictates lytic potential. A cytoplasmic permeability assay was performed using propidium iodide (PI). PI is a cell impermeant intercalating agent that fluoresces when bound to nucleic acids. As such, PI can be used to identify cells with compromised membranes by measuring an increase in fluorescence above the baseline. This phenomenon was qualitatively confirmed by performing fluorescence microscopy studies incubated with PI with or without the AOTs. […]

[5] = presence of elevated calcium and magnesium ions (25 mM)
[6] = normal (Tryptic Soy media) media
[7] = presence of elevated calcium and magnesium ions (25 mM) and presence of heat-inactivated fetal bovine serum

SMILES: C=CCN(CCNC(=N)N)C(=O)CCSCCCSCCCN(CCNC(=N)N)C(=O)CCSCc1cccc(CSCCCN(CCNC(=N)N)C(=O)CCSCCCSCCCN)c1 [3GMG3G]
activity relative to the para substituted compound (3GPG3G) [1]: 2-4 fold

antibacterial activity (MIC100) against Bacillus subtilis (Bacillus subtilis; [5]): maintain their antibacterial activity
antibacterial activity (MIC100) against E. coli (E. coli; [5]): maintain their antibacterial activity
antibacterial activity (MIC100) against MRSA [2, 7]: maintain their antibacterial activity
antibacterial activity (MIC100) against Staphylococcus aureus strain USA300 [3, 7]: maintain their antibacterial activity
SMILES: C=CCN(CCNC(=N)N)C(=O)CCSCCCCSCCCN(CCNC(=N)N)C(=O)CCSCCCCSCCCN(CCNC(=N)N)C(=O)CCSCCCCSCCCN(CCNC(=N)N)C(=O)CCSCCCCSCCCN(CCNC(=N)N)C(=O)CCSCCCCSCCCN [BDT-5G]
antibacterial activity (MIC100) against Bacillus subtilis (Bacillus subtilis; normal (LB media) media): show activity
antibacterial activity (MIC100) against E. coli (E. coli; normal (LB media) media): show activity
antibacterial activity (MIC100) against MRSA [2, 6]: show activity
antibacterial activity (MIC100) against Staphylococcus aureus strain USA300 [3, 6]: show activity

SMILES: CN[C@H](CC(C)C)C(=O)N[C@H]1C(=O)N[C@@H](CC(N)=O)C(=O)N[C@H]2C(=O)N[C@H]3C(=O)N[C@H](C(=O)N[C@H](C(=O)O)c4cc(O)cc(O)c4-c4cc3ccc4O)[C@H](O)c3ccc(c(Cl)c3)Oc3cc2cc(c3O[C@@H]2O[C@H](CO)[C@@H](O)[C@H](O)[C@H]2O[C@H]2C[C@](C)(N)[C@H](O)[C@H](C)O2)Oc2ccc(cc2Cl)[C@H]1O [Vancomycin]
membrane destabilization (diffusion of propidium iodide dye into the cell) [4]: no membrane compromise
propidium iodide entry into cells (staining) (bacterial membrane): PI was unable to gain entry into cells

SMILES: CCCCCCCCCC(=O)N[C@@H](Cc1c[nH]c2ccccc12)C(=O)N[C@H](CC(N)=O)C(=O)N[C@@H](CC(=O)O)C(=O)N[C@@H]1C(=O)NCC(=O)N[C@@H](CCCN)C(=O)N[C@@H](CC(=O)O)C(=O)N[C@H](C)C(=O)N[C@@H](CC(=O)O)C(=O)NCC(=O)N[C@H](CO)C(=O)N[C@@H]([C@H](C)CC(=O)O)C(=O)N[C@@H](CC(=O)c2ccccc2N)C(=O)O[C@@H]1C [daptomycin]
membrane destabilization (diffusion of propidium iodide dye into the cell) [4]: no membrane compromise
